According to patent publication US20140086827A1, “Serum S100B And Uses Thereof” (THE CLEVELAND CLINIC FOUNDATION, priority 2011, published 2014):
“Also recorded” adds a separate entry of the source. Like-named read-outs stand apart in the source and are kept apart here.

Tests used:
[1] = system: drug-resistant epileptic seizures; assay: Add-on glucocorticosteroid or ACTH treatment in pediatric drug resistant epilepsy (review of clinical data); type: in vivo, human; details: for occurrence of seizures (seizure burden vs baseline): add-on treatment, pediatric drug resistant epilepsy, 53 treatments
Method: The study was conducted according to the Declaration of Helsinki Criteria and to the procedures for compassionate drug administration approved by the Ethic Committees of Carlo Besta Institute (Milan, Italy). Oral informed consent from was obtained from parents by specialized neurologists. Administration of GCs was considered compassion care since all patients had intractable life threatening seizures. The clinical data of 43 patients (Table 4) of the Carlo Besta Neurological Institute (Milan, Italy) was reviewed. […] Patients with a history of epileptic syndromes known to respond to steroids (i.e., West, Lennox-Gastaut, Landau-Kleffner and Rasmussen encephalitis) as well as patients affected by documented inflammatory brain disease were excluded. All the subjects received steroid treatment on an in-patient basis.
Patients received GCs or ACTH therapy because of one of the following: 1) >50% increase in seizure frequency; 2) development of non-convulsive status epilepticus; 3) presence of epilepsia partialis continua (EPC). Before GCs or ATCH treatment, patients were evaluated by a team of neurologists, physiologists, and underwent EEG and routine laboratory examinations. Antiepileptic treatments were maintained during the steroid course (Table 4).
Steroidal treatment was, when successful, repeated in case of seizure recurrence. […] GCs or ATCH therapy was considered successful when: 1) seizure frequency decreased by 50%; 2) status epilepticus was stopped; 3) or when epilepsia partialis continua (EPC) was stopped/reduced enough to allow voluntary movement in the affected body district. Duration of treatment was limited to acute dosing, which was repeated when the initial response was beneficial. The effects of length of treatments and efficacy/toxicity of chronic use are not presented herein, since this study design only addressed a proof of principle use of steroids in pediatric epilepsy.

blood-brain barrier = details: IL-RA pre-treatment; previously reported; cited from earlier work
pilocarpine-induced SE [2] = details: data from Marchi 2009, cited from earlier work
pilocarpine-induced SE [3] = assay: Pilocarpine-induced status epilepticus in rats (EEG, Racine's scale, mortality); type: in vivo, rat; details: for time to onset of SE: rats that developed SE
Method: Rats (male Sprague-Dawley 225-250 g) were injected with methylscopolamine (0.5 mg/kg, i.p., Sigma-Aldrich) and 30 minutes after with pilocarpine (340 mg/Kg, Sigma-Aldrich). Data obtained from a total of 45 rats was analyzed (see also FIG. 14B). Development of seizure and status epilepticus was evaluated by behavioral (Racine's scale) and EEG assessment. […] IL-RA data included here are relative to [Marchi N., et al. (2009) Neurobiol Dis 33: 171-181]. IL-RA was administrated in the tail vein (30 μg/kg) 2 hours before scopolamine/pilocarpine treatment.
Note that blood samples were taken at baseline, after each treatment and immediately before (or at onset) of status epilepticus (SE), as evaluated by EEG and behavioral (Racine's Scale) assessments. This methodology has been used in the past to evaluate the presence of BBB damage and inflammatory process preceding seizure onset [Uva L., et al. (2008) Neuroscience 151: 303-312].
Stereotactic electrode implantation was performed in rats under isofluorane anaesthesia, using the Kopf stereotactic frame. Approximately, half of the rats used were implanted. Four stainless steel screws (MX-0090-2, Small Parts Inc., Miami, Fla.) were placed bilaterally on the dura mater of the fronto-parietal cortex. A prefabricated Pinnacle pre-amplifier was connected to the screws. The system has three bio-potential channels—2 EEG and 1 EMG. Prefabricated head implants (Pinnacle Inc., USA) ensured accurate electrode positioning and reliable, robust contacts. Cable artifacts are eliminated by pre-amplification of the EEG and EMG waveforms at the animal's head. EEG data were sampled a rate of 200 Hz. All data are transferred via a USB connection to a PC. Rats were left unrestrained for 2 weeks to recovery from surgery before EEG recordings were performed. Each rat was kept in a separate cage under 12-hours dark-light cycles with free access to food and water. Origin Microcal 7.0 and Diadem (National Instruments) was used in conjunction to the acquisition system for data analysis (e.g., time joint frequency analysis).

IL-1β = assay: Serum IL-1β ELISA in rats; type: in vivo, rat; details: dexamethasone treatment
Method: (§1) The schedule of blood sampling is illustrated in FIG. 14A. Blood was collected from the tail vein using a fixed catheter (Venisystem, Abbocath, 22 G, 300-500 μl/sample). For FACS analysis, 150 μL of whole blood were incubated with a combination of specific antibodies recognizing T-cell subpopulation (CD3+). In particular mouse anti-rat CD8a-FITC, CD3-R-PE and CD4-PE-Cy5 (BD-Pharmingen) were added (2 μL, 5 μL and 5 μL respectively) to blood samples. Blood samples were analyzed by the FACS-Core facility at the Cleveland Clinic. IL-1β ELISA-tests was purchased from Pierce Biotechnology Inc. and performed as described by the vendor.

CD3+ T-lymphocytes = assay: FACS analysis of circulating T-lymphocytes in rat blood; type: in vivo; details: after dexamethasone treatment, rats
Method: as §1

seizures = details: drug-resistant children, Araki 2006; cited from earlier work
[4] = dexamethasone pre-treatment, vs pilocarpine alone

With “adrenocorticotropic hormone (SYSMEHFRWGKPVGKKRRPVKVYPNGAEDESAEAFPLEF; Corticotropin; UniProt P01189 138-176, looked up) [ACTH]” the “occurrence of seizures (seizure burden vs baseline)” value [1] was “significantly reduced”.

For `C[C@]12CCC(=O)C=C1CC[C@@H]1[C@@H]2[C@@H](O)C[C@@]2(C)[C@H]1CC[C@]2(O)C(=O)CO` [hydrocortisone], the “blood-brain barrier function and seizure frequency in epileptic patients receiving anti-inflammatory therapy” value ([1]; epileptic patients, clinical dosage) was “comparable effects”.

For “IL-RA: IL-1 receptor antagonist, data from Marchi 2009”, the “pilocarpine-induced BBB damage” value (blood-brain barrier) is listed as “prevents BBB damage”, the “early EEG burst clusters (time-joint frequency analysis)” value (pilocarpine-induced SE [2]; IL1-RA pre-treatment) is listed as “reduced in amplitude and frequency” and the “number of rats developing SE / seizure occurrence” value (pilocarpine-induced SE [2]; IL-RA 30 μg/kg tail vein 2 hours before scopolamine/pilocarpine) is listed as “reduces seizure occurrence”. For the same molecule, the “mortality associated with pilocarpine seizures (twelve hours)” value (pilocarpine-induced SE [2]; IL-RA pre-treatment) was “decreased” and the “time to onset of SE” value (pilocarpine-induced SE [2]; IL-RA pre-treatment) was “delayed”.

With `C[C@@H]1C[C@H]2[C@@H]3CCC4=CC(=O)C=C[C@]4(C)[C@@]3(F)[C@@H](O)C[C@]2(C)[C@@]1(O)C(=O)CO` [dexamethasone] the “time to onset of SE” value (pilocarpine-induced SE [3]; [4]) was “significantly delayed”, the “time to onset of SE” value (pilocarpine-induced SE [3]; dexamethasone pre-treatment, vs pilocarpine alone, listed as Dexa) was “delayed” and the “mortality associated with pilocarpine SE (twelve hours)” value (pilocarpine-induced SE [3]; dexamethasone pre-treatment, seizures not stopped with barbiturates) was “significantly decreased; also recorded: abolishes mortality; also recorded: reduced mortality; also recorded: abolished”. For the same molecule, the “early EEG burst clusters (time-joint frequency analysis)” value (pilocarpine-induced SE [3]; [4]) was “reduced in amplitude and frequency”, the “effects of single dosage of 1 mg/day on pilocarpine seizures” value (pilocarpine-induced SE [3]; single dosage of 1 mg/day) was “did not exert any discernable effects” and the “serum IL1-β levels” value (IL-1β) was “reduced”. The “serum IL1-β levels” value (IL-1β; listed as Dexamethasone) was “significantly reduced”, the “number of circulating CD3+ T-lymphocytes” value (CD3+ T-lymphocytes) was “drastic reduction; also recorded: drastic decrease” and the “relative percentage of CD8+ subpopulation among CD3+ cells” value (CD3+ T-lymphocytes) was “significantly affected”. For the same molecule, the “seizure frequency vs untreated patients” value (seizures) was “reduced seizure frequency”, the “occurrence of seizures (seizure burden vs baseline)” value [1] was “significantly reduced” and the “MRI FLAIR hyperintensity” value ([1]; patient after dexamethasone treatment, concurrent with seizure reduction) was “decrease in FLAIR hyperintensity”.
